Experimental data taken from article PMC12575728, “Galactose-modified small molecule modulator targets RORα to enhance circadian rhythm and alleviate periodontitis-associated alveolar bone loss” (Bone Research, 2025).
Values after ≈ are worked out from the molar mass of the structure shown.

Tests used:
Kinetic solubility test = type: physicochemical; settings: water, 25 °C, kinetic from dmso stock
Source text: Solubility(μmol/L)=Areafiltered×DFfiltered/Areastd×DFstd×[std]×DFstd

RORα = biological target: T1, RORα (Homo sapiens, UniProt P35398); assay: Luciferase reporter assay (G6Pase or FGF21 promoter) in HEK293T cells cotransfected with RORα; type: cell-based; settings: Fig. S34
T1 construct: HEK293T cells co-transfected with a full-length RORα gene and a luciferase reporter gene; expressed in transfected cells; host or cells: HEK293T
T1 sequence (P35398 1-523): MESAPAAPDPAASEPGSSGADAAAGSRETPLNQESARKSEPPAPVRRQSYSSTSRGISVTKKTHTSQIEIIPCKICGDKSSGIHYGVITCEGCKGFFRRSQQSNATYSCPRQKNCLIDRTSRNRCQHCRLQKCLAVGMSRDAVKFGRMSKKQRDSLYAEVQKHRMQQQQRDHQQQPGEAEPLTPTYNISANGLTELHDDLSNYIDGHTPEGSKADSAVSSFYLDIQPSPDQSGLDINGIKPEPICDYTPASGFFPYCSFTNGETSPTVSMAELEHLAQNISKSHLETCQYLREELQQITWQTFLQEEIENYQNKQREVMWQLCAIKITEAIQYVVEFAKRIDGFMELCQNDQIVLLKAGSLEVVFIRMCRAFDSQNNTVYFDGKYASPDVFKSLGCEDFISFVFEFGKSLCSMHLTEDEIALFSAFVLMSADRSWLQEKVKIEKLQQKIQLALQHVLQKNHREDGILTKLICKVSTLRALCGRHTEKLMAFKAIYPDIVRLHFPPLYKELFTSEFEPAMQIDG
Procedure: HEK293T cells were transfected with Lipofectamine 8000 (ThermoFisher) strictly following the manufacturer’s instructions. Cotransfected HEK293T cells with RORα or RORγ plasmid and a reporter consisting of the G6Pase or FGF21 promoters upstream of a luciferase reporter gene. 500 ng plasmid DNA was transfected into each well of 24 well-plate 24 h after the transfection, DMSO or Gala-SR and SR1078 (5 µmol/L) was added and incubated for 24 h. The Lumicycle instrument detects luminescence and records the numerical value.

[1] = tested on: Per2-dLuc and Bmal1-dLuc U2OS cells; assay: Real-time bioluminescence monitoring of Per2-dLuc and Bmal1-dLuc U2OS cells; type: cell-based, human; settings: U2OS reporter cells, 5 μmol/L, vs DMSO
Procedure: Two clonal circadian reporter cell lines, Bmal1-dLuc and Per2-dLuc, were established and used in this study.[36] These two cell lines display robust cellular rhythmicity with near anti-phasic oscillation of bioluminescence expression. The lentivirus preparation, transduction of U2OS cells and selection of the knockout candidates with puromycin (at […] concentration) were performed using a previously published protoco.[37] LumiCycle (Actimetrics, Inc., Evanston, IL) detect for U2OS cells stably expressing Bmal1-dLuc and Per2-dLuc cells were seeded on an opaque 24-well plate. When the cells are full, which were treated with dexamethasone (DEX) (100 nmol/L final) for 2 h for resetting, 2 h later, the media of cells were replaced with bioluminescence recording media having DMEM culture medium (Gibco 21063029, 500 mL), 70 mL 12% FBS. Luciferin (0.1 mmol/L final) was added fresh to the bioluminescence media. Molecules at determined concentrations were supplied to the recording media (final DMSO concentration is 0.1%).

| solubility kinetic at 2 h (Kinetic solubility test) [µM] | RORα transcriptional activity (RORα) | Structure (SMILES) | circadian rhythm amplitudes [1] | period or phase of the circadian rhythm [1] |
| --- | --- | --- | --- | --- |
| 286 (≈ 225 µg/mL) | – | O=C(Nc1ccc(C(OCO[C@@H]2O[C@H](CO)[C@@H](O[C@H]3O[C@H](CO)[C@@H](O)[C@H](O)[C@H]3O)[C@H](O)[C@H]2O)(C(F)(F)F)C(F)(F)F)cc1)c1ccc(C(F)(F)F)cc1 [Malt-SR] | – | – |
| 198 (≈ 124 µg/mL) | – | O=C(Nc1ccc(C(OCO[C@H]2O[C@H](CO)[C@@H](O)[C@H](O)[C@@H]2O)(C(F)(F)F)C(F)(F)F)cc1)c1ccc(C(F)(F)F)cc1 [Mann-SR] | – | – |
| – | successful inhibition | Cc1ccc(C(=O)Nc2ccc(C(O)(C(F)(F)F)C(F)(F)F)cc2)cc1 [compound 9, reference compound] | downregulate the amplitudes | without disrupting the fundamental period or phase |
